Assays:
CDK2 activity = experiment: Western blot time course of CDK2 activity in PEO4 cells; type: cell-based; details: for level of phosphorylated histone H1 (readout of CDK2 activity) / levels of cyclin A2 and CDK2 phosphorylation: 30 μM DB4 or 1 μM triapine; for levels of cyclin A2 and CDK2 phosphorylation: 24 hr
Experimental: (§1) PEO1 cells were treated with 30 μM DB4 or 1 μM triapine for indicated times, pulsed with EdU for 1 hr and subsequently assayed for DNA synthesis inhibition as described in FIG. 2B. The bivariate plots of Alexa Fluor 488 and PE-Cy5 were gated to determine % S phase cells. […] PEO4 cells were treated with 30 μM DB4 or 1 μM triapine for indicated times, pulsed with EdU for 1 hr and subsequently assayed for DNA synthesis inhibition as described in FIG. 2B. The bivariate plots of Alexa Fluor 488 and PE-Cy5 were gated to determine % S phase cells. […] The bivariate plots of Alexa Fluor 488 and PE-Cy5 shown in FIG. 6A and FIG. 6B were gated to determine % cells in G1, S, and G2/M phases. […] PEO4 cells were treated with 30 μM DB4 or 1 μM triapine for various time periods and subjected to western blot analysis for the levels of cyclin A2, p-CDK1/2, p-H1, p-Chk1, and HSC70. The HSC70 protein level was used as a loading control. Cropped gel images of protein bands are presented. Cyclin A2, p-CDK1/2, and p-H1 bands were from re-probing the same blot. p-Chk1 and HSC70 bands were from re-probing the same duplicated blot. […] The CDK2 activity is expressed by the percentage of the p-HI levels relative to that of the 0 hr control is shown. […] Protein was analyzed by western blotting for p-Chk1, p-ATR, p-RPA32, γH2AX, and HSC70. Cropped gel images of protein bands are presented. All protein bands were from re-probing the same blot. DSB end resection is assessed by the level of p-RPA32.
Additional studies focused on determining how DB4 inhibited CDK2 activity in comparison with triapine. […] In contrast, triapine increased the levels of cyclin A2 and CDK2 phosphorylation evidently at 24 hr. Because CDK2 phosphorylation is inhibitory, the level of phosphorylated histone H1, a substrate of CDK2, was determined as a readout of CDK2 activity (Lin Z P et al., 2014, Molecular Cancer Res, 12:381-393) to reconcile this discrepancy. […] The kinetics of CDK2 activity somewhat resembled to the level of DNA synthesis caused by DB4 and triapine.
(§2) The methodology was described previously (Lin Z P et al., 2014, Molecular Cancer Res, 12:381-393; Ratner E S et al., 2016, Br J Cancer, 114:777-786). The anti-HSC70 antibody was purchased from Santa Cruz (Santa Cruz, CA). Anti-cyclin A2, anti-phospho-ATR (Thr-1981), anti-phospho-Chk1 (Ser-345), anti-phospho-CDK1/2 (Tyr-15), and anti-Y-H2AX (Ser-139) antibodies were from Cell Signaling (Danvers, MA). Anti-phospho-RPA32 (S4/S8) and anti-BRCA2 antibodies were from Bethyl Laboratories (Montgomery, TX). Anti-phospho-histone H1 antibody was from Millipore-Sigma (Burlington, MA). To avoid the cross-reaction of secondary antibodies with previously probed primary antibodies, blots were stripped and re-probed with next primary antibodies raised in a different species in an alternate fashion. All images were acquired and processed using the G: BOX gel documentation system and the GeneSnap software (Syngene, Frederick, MD). Brightness and contrast of images were applied equally across the entire gel/blot image and to controls. Images of protein bands were cropped and only brightness-adjusted using the PowerPoint software (Microsoft, Redmond, WA). Quantification of the protein band intensity was performed using the ImageJ software (NIH, Bethesda, MD).

DSB end resection = experiment: Western blot of DSB end resection with etoposide in PEO4 cells; type: cell-based; details: for Chk1 phosphorylation with/without etoposide: 5 μM etoposide 4 hr; for RPA32 phosphorylation, drug alone: 30 μM DB4, 1 μM triapine or 5 μM etoposide; for etoposide-induced RPA32 phosphorylation: pre-treated 1 hr, then 5 μM etoposide 4 hr
Experimental: as §1
To investigate the effects of DB4 on DSB end resection, the level of RPA32 phosphorylation, indicative of CDK2-dependent DSB end resection, was determined.
as §2

Structure (SMILES)	level of phosphorylated histone H1 (readout of CDK2 activity) (CDK2 activity)	levels of cyclin A2 and CDK2 phosphorylation (CDK2 activity)	Chk1 phosphorylation (CDK2 activity; time course, drug alone)	ATR phosphorylation (DSB end resection)	Chk1 phosphorylation with/without etoposide (DSB end resection)	RPA32 phosphorylation, drug alone (DSB end resection)	etoposide-induced RPA32 phosphorylation (DSB end resection)
C=CCn1c(SCc2cccc(Cl)c2)nnc1C1CCN(Cc2nc3ccccc3s2)CC1 [DB4, 2-[(4-{4-allyl-5-[(3-chlorobenzyl)thio]-4H-1,2,4-triazol-3-yl}-1-piperidinyl)methyl]-1,3-benzothiazole]	down-regulation of phosphorylated histone H1 at 24 hr	downregulated	did not induced Chk1 phosphorylation	weakly induce ATR phosphorylation	only synergized with etoposide to induce Chk1 phosphorylation	no effect on basal RPA32 phosphorylation	augmented etoposide-induced RPA32 phosphorylation
NC(=S)NN=Cc1ncccc1N [triapine, 3-aminopyridine-2-carboxaldehyde-thiosemicarbazone, reference compound]	reduced the level of phosphorylated histone H1 earlier starting at 3 hr	increased	–	induced ATR and Chk1 phosphorylation independently of etoposide treatment	induced ATR and Chk1 phosphorylation independently of etoposide treatment	induced a minor RPA32 phosphorylation	blocked phosphorylation of RPA32, induced by etoposide

Reference: patent publication US20240239786A1, “COMPOSITIONS AND METHODS FOR THE TREATMENT AND PREVENTION OF CANCER” (Yale University, priority 2021, published 2024)
